Here are results for one compound from US10030030B2, “Crystals of dispiropyrrolidine derivatives” (Daiichi Sankyo Company, Limited, priority 2012, dated 2018).

Assay [1] deals with T1, Mdm2/p53 binding (His-p53 and GST-Mdm2) (Homo sapiens, UniProt Q00987, L33E).
T1 construct: Mdm2 amino acids at positions 25 to 108
Description: Mdm2/p53 binding assay (HTRF). Conditions: His-p53 (aa 1-132) / GST-Mdm2 (aa 25-108, L33E), 6.25 nM each, 25° C., 1 hour. Here is the method:
A protein dilution containing 6.25 nM each of His-p53 (fusion protein of a p53 partial protein having p53 amino acids at positions 1 to 132, with a histidine protein) and GST-Mdm2 (fusion protein of a Mdm2 partial protein, having Mdm2 amino acids at positions 25 to 108 with leucine residue 33 substituted by glutamic acid, with glutathione transferase) proteins was prepared using a protein buffer solution (20 mM HEPES pH 7.4, 150 mM NaCl, 0.1% BSA). This protein dilution was added in an amount of 8 μL/well to a 384-well plate (384-well low volume NBC, Corning Inc., catalog No: 3676). […]
Time-resolved fluorescence at 620 and 665 nm was measured at an excitation wavelength of 320 nm using a plate reader (ARVOsx, PerkinElmer Co., Ltd. or PHERAstar, BMG LABTECH). Ratio (R) was calculated using the measured values (RFU 620 nm and RFU 665 nm) according to the following formula: R=(RFU 665 nm−BI−C×RFU 620 nm)/RFU 620 nm
BI: measured value at 665 nm of reaction solution (only each buffer solution) nonsupplemented with each protein, the compound, and the antibodies […]
A and D: each measured value at 665 nm and 620 nm of reaction solution supplemented with only Eu-labeled anti-GST antibody solution.
The R value calculated from the well supplemented with His-p53, GST-Mdm2, the test compound, and each antibody was defined as R (sample). […] T/C was calculated from the formula shown below. […]

For assay [2], the system named is human lung cancer-derived cell line NCI-H460 having wild-type p53. Put plainly: Cell growth inhibition assay (MTT). It is filed as cell-based. To be noted: 72 h, NCI-H460 cells, 3 days culture, read-out: cell growth inhibiting effect GI50. The protocol:
A cell growth inhibition assay was conducted using human lung cancer-derived cell line NCI-H460 having wild-type p53.
NCI-H460 cells were suspended in a medium (RPMI1640 medium containing 10% fetal bovine serum) and the suspension was inoculated in an amount of 500 cells/150 μL/well to a 96-well multiwell plate. A test compound was dissolved in DMSO and this solution was diluted with medium to prepare a sample solution (DMSO concentration: 1% or lower). On the next day of inoculation, medium nonsupplemented with the test compound or the sample solution was added in an amount of 50 μL/well. […]
A 5 mg/mL MTT (3-(4,5-dimethylthiazol-2-yl)-2,5-diphenyltetrazolium bromide, Sigma-Aldrich Co., M-2128) solution was prepared using a phosphate buffer solution (Dulbecco's Phosphate-buffered Saline). […] The absorbance of each well was measured under conditions of OD 540 nm and reference 660 nm using a plate reader (SpectraMax PLUS384, Molecular Devices, Calif., USA).
The OD value measured on the day of adding the sample solution was defined as S. The OD value measured three days after addition of the sample solution was defined as T. The OD value measured three days after addition of the DMSO dilution was defined as C. […]

T1 sequence (Q00987 25-108 L33E): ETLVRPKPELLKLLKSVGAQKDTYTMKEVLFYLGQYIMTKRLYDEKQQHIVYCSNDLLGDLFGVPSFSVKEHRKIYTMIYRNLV

On to `CC1(C)CCC2(CC1)N[C@@H](C(=O)N[C@@H]1CC[C@@H](C(N)=O)OC1)[C@H](c1ccnc(Cl)c1F)[C@]21C(=O)Nc2cc(Cl)ccc21` [compound (1), (3′R,4′S,5′R)—N-[(3R,6S)-6-carbamoyltetrahydro-2H-pyran-3-yl]-6″-chloro-4′-(2-chloro-3-fluoropyridin-4-yl)-4,4-dimethyl-2″-oxo-1″,2″-dihydrodispiro[cyclohexane-1,2′-pyrrolidine-3′,3″-indole]-5′-carboxamide], for which the IC50 in assay [1] was ≤ 100 nM. The GI50 in assay [2] is < 100 nM.
